Assays:
[1] = test system: MCF-7 cells; assay: Estrogen regulation of marker genes in MCF-7 cells; assay type: cell-based
[2] = test system: cyclin A1 in ERα-enhanced vascular endothelial cells; assay: Cyclin A1 RNase protection, ERα-enhanced vascular endothelial cells; assay type: cell-based, human; settings: for cyclin A1 mRNA (in words): ERα-enhanced cells, 100 nM E2, 1 μM ICI 164384, 10 nM DES
Method: RNA was prepared using standard methods and RNase protection experiments were performed to evaluate the time course of cyclin A1 induction.
(§1) In a similar experiment, RNase protection assays were performed using estrogen receptor α- and estrogen receptor β-enhanced vascular endothelial cells. […] The results are presented in FIGS. 4A and 5B, which show the levels of various cyclins in estrogen receptor α- and estrogen receptor β-enhanced cells, respectively. Arrows indicate mRNA for each indicated cyclin. […] Cyclin A1 is the only cyclin in the panel increased by estradiol treatment.
(§2) Cyclin A1 expression and the effect of estradiol on expression in a number of immortalized and primary cells lines was further evaluated as described above.

[3] = test system: cyclin A1 in Vascular endothelial cells; assay: Cyclin A1 expression and induction, vascular endothelial cells; assay type: cell-based; parameters: key: (+) indicates detectable cyclin A1; (−) indicates no detectable cyclin A1 expression; settings: immortalized human cells
Excerpt: as §2

[4] = test system: cyclin A1 in Endometrial epithelial cells; assay: Cyclin A1 expression and induction, endometrial epithelial cells; assay type: cell-based; parameters: key: (+) indicates detectable cyclin A1; (−) indicates no detectable cyclin A1 expression; settings: immortalized human cells
Excerpt: as §2

[5] = test system: cyclin A1 in Primary vascular endothelial cells; assay: Cyclin A1 expression and induction, primary vascular endothelial cells; assay type: cell-based; parameters: key: (+) indicates detectable cyclin A1; (−) indicates no detectable cyclin A1 expression
Excerpt: as §2

[6] = test system: VE-ERα cells; assay: Incyte UniGEM estrogen regulated gene profile of VE-ERα cells; assay type: cell-based, human; settings: VE-ERα cells treated for 6 hours vs ethanol
Method: The Incyte UniGEM technology was used to survey a large panel of genes and to establish the estrogen regulated gene profile of the VE-ERα cells. VE-ERα cells were treated for 6 hours with 17-β estradiol or vehicle control (ethanol). Poly (A) RNA was isolated and this RNA was used to synthesize Cy3 or Cy5 labeled cDNA for simultaneous probing of Incyte UniGem V. Reciprocal labeling was done and two UniGems were probed (for one GEM the estradiol probe was labeled with Cy3 and ethanol probe with Cy5 and this labeling was reversed for the second GEM). UniGem V contains approximately 8500 human sequences including both known genes and ESTs. More than 20 genes were identified which were regulated more than 2 fold on both UniGEMs (Table I, indicated as UniGem. The sequence indicated in Table I with RF were identified by RNA fingerprinting, a more stringent version of differential display. RNA fingerprinting is based upon the use of arbitrary primers and primer combinations to carry out PCR amplifications from cDNA populations derived from cells or tissues of interest. The process generates a series of radioactively-labeled fragments which can be resolved by PAGE and visualized by autoradiography. (Mathieu-Daude, et al. Methods Enzymol 1999;303:309; Stone, et al., Nucleic Acids Res 1994 Jul 11;22(13):2612-8.)

[7] = test system: cyclin A1 in ERβ-enhanced vascular endothelial cells; assay: Cyclin A1 RNase protection, ERβ-enhanced vascular endothelial cells; assay type: cell-based, human; settings: 100 nM E2, 1 μM ICI 164384, 10 nM DES
Method: as §1, §2

[8] = test system: cyclin A1 in Primary vascular smooth muscle cells; assay: Cyclin A1 expression and induction, primary vascular smooth muscle cells; assay type: cell-based; parameters: key: (+) indicates detectable cyclin A1; (−) indicates no detectable cyclin A1 expression
Excerpt: as §2

[9] = test system: cyclin A1 in Osteoblasts; assay: Cyclin A1 expression and induction, osteoblasts; assay type: cell-based; parameters: key: (+) indicates detectable cyclin A1; (−) indicates no detectable cyclin A1 expression; settings: immortalized human cells
Excerpt: as §2

[10] = test system: ERE luciferase reporter in Chinese hamster ovary cells expressing transfected ERα; assay: ERE transactivation (ERE luciferase reporter in Chinese hamster ovary cells expressing transfected ERα); assay type: cell-based
Method: (§3) In a further experiment, compounds known to have estrogen-like activity based on ER binding and ERE transactivation (ERE luciferase reporter in Chinese hamster ovary cells expressing transfected ERα) were evaluated. […] In order to confirm that these active compounds were working in an ER dependent manner, VE103-ERα cells were treated with a single dose of compound and increasing doses of ICI 164,384. […] All results are presented as percent of estrogen. PGI2 synthase numbers were based on EC50 from a 5-point dose response like that shown for estrogen in FIG. 5.

[11] = test system: prostacyclin I2 synthase in VE-ERα cells; assay: Estrogen treatment time course, RNase protection analysis of prostacyclin I2 synthase in VE-ERα cells; assay type: cell-based, human; settings: at 24 hours
Method: This step is not necessary with genes identified by the UniGem where an estrogen treatment time course was performed. RNA was isolated and RNase protection analysis was used to determine estrogen responses (FIG. 2). All 20 of the genes examined were confirmed to be regulated to a higher fold modulation at 24 hours than the 6 hours used for the UniGem experiment.
The genes identified were relevant genes for vascular endothelial cells and in some cases consistent with the known effects of estrogen in the cardiovascular system. […] This enzyme is required for that last step in the synthesis of prostacyclin (PGI2). […] Another relevant gene was natriuretic peptide receptor B (NPR-B) which is the receptor for C-type natriuretic peptide (CNP), an endothelium dependent vasodilator.

[12] = test system: estrogen-regulated genes in VE-ERα cells; assay: Multigene RNase protection assay (RPA) with VE-ERα cells; assay type: cell-based, human; settings: for induction of expression of estrogen-regulated genes / effect on basal gene expression: 5 dose 0.1 nM-1000 nM for 24 hours
Excerpt: Another preferred assay is an RNase protection assay (RPA), which can be used to examine a panel of genes identified as estrogen-regulated in VE-ERα cells. The RPA is described in Gilman, 1993, In Current Protocols in Molecular Biology, Vol. 1 (Ausubel, F. M., R. Brent, R, E. Kingston, D. D. Moore, J. G. Seidman, J. A. Smith and K. Stuhl, eds.) pp. 4.7.1-4.7.8, John Wiley and Sons, Inc., New York, incorporated herein by reference in its entirety. Within this assay, which may be performed according to standard protocols, multiple probes can be used in a single reaction that requires as little as 1 μg of total RNA, resulting in high information content and a molecule profile for each compound on ERα. regulated gene expression in vascular endothelial cells. The RPA assay is very sensitive and is therefore able to detect low copy messages and distinguish low fold modulations typical of estrogen. This approach has a number of advantages over a reporter assay. The endogenous genes in the multigene assay will contain all endogenous gene regulatory elements and will not be restricted to activation occurring through an ERE element. Since VE-ERα cells are human cells that have been characterized and determined to maintain endothelial specific phenotypic markers and functions, tissue selective ER regulation can be investigated.
An RNase protection assay (RPA) was used to examine a panel of genes identified as estrogen-regulated in VE-ERα cells.
as §3

[13] = test system: cyclin A1 in Vascular smooth muscle cells; assay: Cyclin A1 expression and induction, vascular smooth muscle cells; assay type: cell-based; parameters: key: (+) indicates detectable cyclin A1; (−) indicates no detectable cyclin A1 expression; settings: immortalized human cells
Excerpt: as §2

[14] = test system: VEGF mRNA in VE-ERα cells; assay: VEGF mRNA expression in VE-ERα cells by RNAse protection analysis; assay type: cell-based, human; settings: VE-ERα cells treated with estrogen; RNAse protection analysis (FIG. 1, 100 nM)
Method: Estrogen receptor α (ERα)-enhanced vascular endothelial cells were prepared by infecting primary vascular endothelial cells with a retrovirus expressing human papillomavirus E6/E7, which leads to cellular immortalization. The retrovirus expression vector LXSN16E6E7 contains the immortalizing oncogenes E6 and E7 from human papilloma virus type 16 and a neomycin resistance gene. (Halbert, C. L., Demers, F. W., and Galloway, D. A. 1991. J Virol. 65: 473-478 (1)). This vector was transfected into PA317 cells, an amphotrophic packaging cell line, by calcium phosphate precipitation. Stably clonal lines were established by G418 selection. A negative control line expressing the empty retrovirus LXSN was established. Viruses produced by the clonal lines of PA317 were used to infect second passage primary human aortic endothelial cells obtained from Cell Applications, Inc., San Diego, Calif. Following infection and selection with G418, the LXSN infected cells ceased growth after approximately 7 passages where the LXSN16E6E7 infected cells were growth extended beyond 20 passages.
The cells expressed the expected endothelial markers. The levels of ERα were increased by infection of the cells with a retrovirus that expresses recombinant ERα (Green, S. et al, Nature 1986 320: 134-137). […]

[15] = test system: cyclin A1 in MCF-7 (mammary cancer cell line); assay: Cyclin A1 expression and induction, MCF-7; assay type: cell-based; parameters: key: (+) indicates detectable cyclin A1; (−) indicates no detectable cyclin A1 expression
Excerpt: as §2

Structure (SMILES): C[C@]12CC[C@@H]3c4ccc(O)cc4CC[C@H]3[C@@H]1CC[C@@H]2O [17-β-estradiol]
- regulation of ATP sulfurylase/APS kinase, podocalyxin [1]: found to be regulated by estrogen
- regulation of clusterin [1]: not regulated by estrogen in a similar fashion
- regulation of prostacyclin I2 synthase and natriuretic peptide receptor B (NPR-B) [1]: not regulated by estrogen
- time to increase of cyclin A1 mRNA ([2]; 100 nM 17-β-estradiol vs 0.1% ethanol): ≤ 3 h
- cyclin A1 mRNA (in words) [2]: induction of cyclin A1 mRNA can occur
- Cyclin A1 expression, Estradiol [3]: +
- Cyclin A1 expression, Estradiol [4]: +
- Cyclin A1 expression, Estradiol [5]: +
- regulation of more than 20 genes on both UniGEMs [6]: more than 2 fold
- cyclin A1 mRNA (in words) [7]: induction of cyclin A1 mRNA can occur
- Cyclin A1 expression, Estradiol [8]: −
- Cyclin A1 expression, Estradiol [9]: −
- ERE transactivation [10]: 100% of estrogen
- prostacyclin I2 synthase upregulation [11]: 4 fold
- induction of expression of estrogen-regulated genes [12]: induced expression
- PG I2 synthase ([12]; VE-ERα Cells, based on EC50 from a 5-point dose response): 100% of estrogen
- Cyclin A1 expression, Estradiol [13]: −
- expression of vascular endothelial growth factor (VEGF) mRNA [14]: increased three fold
- Cyclin A1 expression, Estradiol [15]: −

Structure (SMILES): CC/C(=C(/CC)c1ccc(O)cc1)c1ccc(O)cc1 [DES, diethylstilbestrol]
- cyclin A1 mRNA (in words) [2]: mimics the estradiol effect
- cyclin A1 mRNA (in words) [7]: mimics the estradiol effect

Structure (SMILES): CCCCN(C)C(=O)CCCCCCCCCC[C@@H]1Cc2cc(O)ccc2[C@H]2CC[C@]3(C)[C@@H](O)CC[C@H]3[C@H]12 [ICI 164,384]
- cyclin A1 mRNA (in words) [2]: inhibits this response
- cyclin A1 mRNA (in words) [7]: inhibits this response
- effect on basal gene expression [12]: lowered basal expression of some genes at higher concentrations
- induction of expression of estrogen-regulated genes [12]: showed no induction of gene expression
- inhibition of gene activation by active compounds ([12]; VE103-ERα cells, single dose of compound and increasing doses of ICI 164,384): able to inhibit competitively the activation of these genes

Structure (SMILES): O=C(c1ccc(OCCN2CCCCC2)cc1)c1c(-c2ccc(O)cc2)sc2cc(O)ccc12 [Raloxifene]
- effect on basal gene expression [12]: repressing rather than inducing gene expression
- induction of expression of estrogen-regulated genes [12]: showed no clear induction of any of the genes

Structure (SMILES): CC/C(=C(\c1ccccc1)c1ccc(OCCN(C)C)cc1)c1ccccc1 [tamoxifen]
- induction of expression of estrogen-regulated genes [12]: showed no clear induction of any of the genes

Reference: patent publication US20030054332A1, “Markers for evaluating estrogenic activity” (priority 2001, published 2003)
